Measured values taken from patent publication US20080312209A1, “Piperazine Heteroaryl Derivatives as Gpr38 Agonists” (Glaxo Group Limited, priority 2005, published 2008).
Read-outs that look alike come from different tables or passages of the source.

Molecular target: hGPR38R (Homo sapiens, UniProt O43193)
Assay: GPR38 GTPγS functional agonist assay
Assay type: biochemical
Parameters: expressed in transfected cells; host or cells: HEK293 (transient transfection; P2 membrane fractions)
Description: The potencies and intrinsic activities of the compounds of this invention can also be determined according to the [35S]GTPγS functional assay which is described herein. It has been found, using the [35S]GTPγS functional assay, that compounds of formula (I) appear to be partial or full agonists of the GPR38 receptor.
GPR38GTPγS Functional Agonist Assay Protocol
For each compound being assayed, in an Opti clear bottom 96 well plate, is added:—
(a) 20 μl of test compound (or 10 μl of guanosine 5′-triphosphate (GTP) as non-specific binding control) diluted to required concentration in assay buffer (20 mM N-2-Hydroxyethylpiperazine-N′-2-ethanesulfonic acid (HEPES)+100 mM NaCl+10 mM MgCl2, pH adjusted to 7.4 with NaOH); (b) 60 μl bead/membrane/GDP mix prepared by suspending wheat germ agglutinin-polyvinyltoluene (WGA-PVT) scintillation proximity assay (SPA) beads at 100 mg/ml in assay buffer followed by mixing with membrane (prepared in accordance with the methodology described above) and diluting in assay buffer to give a final volume of 60 μl which contains 10 μg protein and 0.5 mg bead per well—mixture is pre-mixed at 4° C. for 30 min on a roller and just prior to addition to the plate, 10 μM final concentration of guanosine 5′ diphosphate (GDP—diluted in assay buffer) is added; (c) 20 μl guanosine 5′ [γ35-S]thiotriphosphate, triethylamine salt (Amersham; radioactivity concentration=37 kBq/μl or 1 mCi/ml; Specific Activity 1160 Ci/mmol) diluted to 1.9 nM in assay buffer to give 0.38 nM final.
The plate is incubated on a shaker at 25° C. for 30 min followed by centrifugation for 5 min at 1500 rpm. The plate is read between 3 and 6 h after completion of centrifuge run in a Wallac Microbeta counter on a 1 min normalised tritium count protocol. Data is analysed using a 4-parameter logistic equation. Basal activity used as minimum.
The following alternative procedure may also be used:
Membranes are derived from bulk cell cultures of HEK293 cell lines transiently transfected with hGPR38R and Go G-protein. P2 membranes fractions are prepared, aliquoted and stored at −80° C.
For each compound being assayed, the following is added into a white Greiner 384 well plate:—
(a) 1 μl of test compound diluted to required concentration in DMSO. (b) 20 μl bead/membrane/Saponin/GDP mix prepared as follows;—suspension of LEADseeker wheat germ agglutinin (WGA) scintillation proximity assay (SPA) beads at 25 mg/ml in assay buffer (20 mM N-2-Hydroxyethylpiperazine-N′-2-ethanesulfonic acid (HEPES)+100 mM NaCl+10 mM MgCl2, pH adjusted to 7.4 with KOH) containing saponin at 150 ug/ml. Mixing of bead suspension with membranes at 500 ug/ml (prepared in accordance with the methodology described above) and diluting in assay buffer to give a final volume of 20 μl which contains 5 μg protein and 0.25 mg bead per well.
Mixture is pre-mixed for 30 minutes on a roller and just prior to addition to the plate, 3 μM final assay concentration of guanosine 5′ diphosphate (GDP) (diluted in assay buffer) is added.
(c) 25 μl guanosine 5′ [γ35-S]thiotriphosphate, triethylamine salt (Amersham; radioactivity concentration=37 kBq/μl or 1 mCi/ml; Specific Activity 1160 Ci/mmol) diluted to 0.6 nM in assay buffer to give 0.33 nM final assay concentration.
The plate is then spun for 2 minutes at 1500 rpm and then incubated at room temperature for 4 hours. The plate is then read on a Viewlux Plux (Perkin Elmer). Data is analysed using a 4-parameter logistic equation.

[1] = [35S]GTPγS SPA, HEK293 membranes with hGPR38R and Go G-protein, read-out: pEC50 in the GTPγS assay (converted)

Sequence of hGPR38R (O43193 whole entry): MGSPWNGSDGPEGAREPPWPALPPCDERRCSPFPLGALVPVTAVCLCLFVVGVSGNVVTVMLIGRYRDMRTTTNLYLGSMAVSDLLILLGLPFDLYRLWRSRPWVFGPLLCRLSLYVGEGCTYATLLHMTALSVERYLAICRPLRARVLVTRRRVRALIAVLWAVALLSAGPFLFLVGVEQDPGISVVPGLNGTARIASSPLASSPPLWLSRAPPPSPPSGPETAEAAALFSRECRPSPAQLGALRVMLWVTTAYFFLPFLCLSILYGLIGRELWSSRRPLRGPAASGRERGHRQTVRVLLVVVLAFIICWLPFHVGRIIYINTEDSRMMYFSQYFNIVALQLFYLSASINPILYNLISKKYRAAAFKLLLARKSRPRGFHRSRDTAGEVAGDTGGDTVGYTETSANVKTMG
Sequence of hGPR38R (P09471 2-354 partner limits assumed): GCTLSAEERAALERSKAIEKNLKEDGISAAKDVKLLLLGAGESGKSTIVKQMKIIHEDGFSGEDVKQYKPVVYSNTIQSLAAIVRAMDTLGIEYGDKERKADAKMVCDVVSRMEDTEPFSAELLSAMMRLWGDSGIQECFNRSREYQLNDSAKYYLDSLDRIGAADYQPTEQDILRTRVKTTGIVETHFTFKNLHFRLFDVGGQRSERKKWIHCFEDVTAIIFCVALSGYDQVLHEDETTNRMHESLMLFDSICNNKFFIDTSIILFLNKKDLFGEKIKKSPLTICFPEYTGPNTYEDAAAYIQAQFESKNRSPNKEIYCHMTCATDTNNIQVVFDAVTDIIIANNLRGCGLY
Sequence of hGPR38R (P62873 2-340 partner limits assumed): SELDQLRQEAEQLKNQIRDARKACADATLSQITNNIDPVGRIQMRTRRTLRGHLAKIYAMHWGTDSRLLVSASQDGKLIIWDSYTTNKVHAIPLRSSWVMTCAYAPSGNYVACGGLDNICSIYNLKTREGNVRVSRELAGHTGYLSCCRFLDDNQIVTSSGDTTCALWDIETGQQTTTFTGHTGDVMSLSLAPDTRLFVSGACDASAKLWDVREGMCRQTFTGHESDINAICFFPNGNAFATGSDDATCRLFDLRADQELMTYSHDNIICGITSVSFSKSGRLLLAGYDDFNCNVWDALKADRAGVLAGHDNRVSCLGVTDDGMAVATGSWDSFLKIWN
Sequence of hGPR38R (P59768 2-68 partner limits assumed): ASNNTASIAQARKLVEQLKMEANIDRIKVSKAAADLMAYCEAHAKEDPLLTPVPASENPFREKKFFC

Row | SMILES | EC50 [µM] | EC50 [1] [µM]
1 | Cc1nc(C(=O)N2CCC(Nc3ccc(F)cc3)CC2)c(-c2ccc(CN3C[C@@H](C)N[C@@H](C)C3)cc2)s1 [Example 5] | < 3.16 | 
2 | C[C@@H]1CN(Cc2ccc(-n3ccnc3C(=O)N3CCC(Nc4cccc(F)c4)CC3)cc2F)C[C@H](C)N1 [Example 25, 1-{[1-(4-{[(3R,5S)-3,5-dimethyl-1-piperazinyl]methyl}-3-fluorophenyl)-1H-imidazol-2-yl]carbonyl}-N-(3-fluorophenyl)-4-piperidinamine] | < 3.16 | 
3 | Cc1nc(CN(C)C(=O)COc2ccc(F)cc2)c(-c2ccc(CN3C[C@@H](C)N[C@@H](C)C3)cc2)s1 [Example 7, N-{[5-(4-{[(3R,5S)-3,5-dimethyl-1-piperazinyl]methyl}phenyl)-2-methyl-1,3-thiazol-4-yl]methyl}-2-[(4-fluorophenyl)oxy]-N-methylacetamide] |  | < 3.16
4 | C[C@@H]1CN(Cc2ccc(-c3cccnc3C(=O)N3CCC(Nc4cc(F)cc(F)c4)CC3)cc2F)C[C@H](C)N1 [Example 27, N-(3,5-difluorophenyl)-1-{[3-(4-{[(3R,5S)-3,5-dimethyl-1-piperazinyl]methyl}-3-fluorophenyl)-2-pyridinyl]carbonyl}-4-piperidinamine] | < 3.16 | 
5 | C[C@@H]1CN(Cc2ccc(-n3ccnc3C(=O)N3CCC(Nc4ccc(F)cc4)CC3)cc2F)C[C@H](C)N1 [Example 24, 1-{[1-(4-{[(3R,5S)-3,5-dimethyl-1-piperazinyl]methyl}-3-fluorophenyl)-1H-imidazol-2-yl]carbonyl}-N-(4-fluorophenyl)-4-piperidinamine] | < 3.16 | 
6 | C[C@@H]1CN(Cc2ccc(-n3ccnc3C(=O)N3CCC(Nc4ccccc4F)CC3)cc2)C[C@H](C)N1 [Example 23, 1-{[1-(4-{[(3R,5S)-3,5-dimethyl-1-piperazinyl]methyl}phenyl)-1H-imidazol-2-yl]carbonyl}-N-(2-fluorophenyl)-4-piperidinamine] | < 3.16 | 
7 | C[C@@H]1CN(Cc2ccc(-c3cccnc3C(=O)N3CCC(Nc4cccc(C#N)c4)CC3)cc2F)C[C@H](C)N1 [Example 30, 3-[(1-{[3-(4-{[(3R,5S)-3,5-dimethyl-1-piperazinyl]methyl}-3-fluorophenyl)-2-pyridinyl]car-bonyl}-4-piperidinyl)amino]benzonitrile] |  | < 3.16
8 | Cc1nc(C(=O)N2CCC(Cc3ccc(F)cc3)CC2)c(-c2ccc(CN3C[C@@H](C)N[C@@H](C)C3)cc2)s1 [Example 4, (3R,5S)-3,5-Dimethyl-1-({4-[4-({4-[(4-fluorophenyl)methyl]piperidin-1-yl}carbonyl)-2-methyl-1,3-thiazol-5-yl]phenyl}methyl)piperazine] |  | < 3.16
